# From patent publication US20240366589A1, “NHE3-BINDING COMPOUNDS AND METHODS FOR INHIBITING PHOSPHATE TRANSPORT” (Ardelyx, Inc., priority 2013, published 2024)
# Experiments:
# Rat NHE3 = biological target: T1, Rat NHE3 (Rattus norvegicus, UniProt P26433); test: Cell-based NHE3 activity under prompt conditions (OK cells, BCECF pH recovery), rat NHE3; conditions: prompt conditions
# T1 construct: expressed in transfected cells; host or cells: Opossum kidney (OK) cells (ATCC), electroporation
# Method in brief: (§1)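 OK cells electroporated with rat or human NHE3 gene, loaded 30 min at room temperature with 5 μM BCECF-AM in NH4Cl-HEPES pH 7.4.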
# [1] = tested on: phosphorus and calcium levels in the urine of rats; test: Urinary excretion of phosphate and calcium in rats (16 h overnight urine); assay type: in vivo, rat; conditions: rats, oral gavage, 16 h post-dose
# Human NHE3 = biological target: T2, Human NHE3 (Homo sapiens, UniProt P48764); test: Cell-based NHE3 activity under prompt conditions (OK cells, BCECF pH recovery), human NHE3; conditions: prompt conditions
# T2 construct: expressed in transfected cells; host or cells: Opossum kidney (OK) cells (ATCC), electroporation
# T2 sequence (P48764 26-834): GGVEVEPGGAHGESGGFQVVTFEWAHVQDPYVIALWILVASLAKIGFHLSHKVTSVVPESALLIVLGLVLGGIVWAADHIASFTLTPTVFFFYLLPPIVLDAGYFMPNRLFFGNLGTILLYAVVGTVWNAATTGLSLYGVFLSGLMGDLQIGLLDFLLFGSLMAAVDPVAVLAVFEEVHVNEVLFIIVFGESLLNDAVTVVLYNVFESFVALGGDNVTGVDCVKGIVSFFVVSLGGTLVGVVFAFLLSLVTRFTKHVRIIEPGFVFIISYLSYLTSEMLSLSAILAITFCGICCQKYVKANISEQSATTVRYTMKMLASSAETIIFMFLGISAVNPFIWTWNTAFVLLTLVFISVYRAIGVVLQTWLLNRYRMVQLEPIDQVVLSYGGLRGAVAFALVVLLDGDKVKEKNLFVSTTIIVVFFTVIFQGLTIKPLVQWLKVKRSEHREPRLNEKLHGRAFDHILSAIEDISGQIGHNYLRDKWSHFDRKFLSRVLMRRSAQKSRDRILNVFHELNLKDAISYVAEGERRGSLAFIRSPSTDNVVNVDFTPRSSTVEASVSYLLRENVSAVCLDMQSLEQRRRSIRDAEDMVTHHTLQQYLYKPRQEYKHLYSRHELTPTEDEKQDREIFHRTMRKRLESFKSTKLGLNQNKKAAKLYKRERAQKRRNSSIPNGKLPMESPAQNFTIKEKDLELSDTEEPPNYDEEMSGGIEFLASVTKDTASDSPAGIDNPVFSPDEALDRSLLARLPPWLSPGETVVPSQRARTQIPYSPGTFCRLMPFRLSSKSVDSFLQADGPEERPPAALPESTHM
# Method in brief: as §1
# [2] = tested on: absorption of sodium from the intestinal lumen; test: Inhibition of intestinal sodium absorption: urinary sodium (uNa) 16 h after single oral dose in rats; assay type: in vivo, rat; conditions: oral gavage, 16 h post-dose
# Method in brief: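 Eight-week-old Sprague-Dawley rats (n=6) given single oral gavage of compound or water vehicle in the late afternoon, then kept in metabolic cages with chow and water ad libitum. Urine collected over 16 h; sodium quantified by ion chromatography and expressed as % of vehicle mean, compared by one-way ANOVA with Dunnett's test.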
# [3] = tested on: absorption of sodium from the intestinal lumen; test: Fecal form score (FFS) 16 h after oral dose in rats; assay type: in vivo, rat; conditions: oral gavage, 16 h post-dose, scale 1-5
# Method in brief: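 Eight-week-old Sprague-Dawley rats (n=6) dosed by oral gavage with compound or water vehicle between 4 and 5 PM, then housed in metabolic cages with food and water ad libitum. At 16 h, fecal form scored 1 (normal pellet) to 5 (liquid streams) by two observers; group mean reported.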
# T1 sequence (P26433 29-831): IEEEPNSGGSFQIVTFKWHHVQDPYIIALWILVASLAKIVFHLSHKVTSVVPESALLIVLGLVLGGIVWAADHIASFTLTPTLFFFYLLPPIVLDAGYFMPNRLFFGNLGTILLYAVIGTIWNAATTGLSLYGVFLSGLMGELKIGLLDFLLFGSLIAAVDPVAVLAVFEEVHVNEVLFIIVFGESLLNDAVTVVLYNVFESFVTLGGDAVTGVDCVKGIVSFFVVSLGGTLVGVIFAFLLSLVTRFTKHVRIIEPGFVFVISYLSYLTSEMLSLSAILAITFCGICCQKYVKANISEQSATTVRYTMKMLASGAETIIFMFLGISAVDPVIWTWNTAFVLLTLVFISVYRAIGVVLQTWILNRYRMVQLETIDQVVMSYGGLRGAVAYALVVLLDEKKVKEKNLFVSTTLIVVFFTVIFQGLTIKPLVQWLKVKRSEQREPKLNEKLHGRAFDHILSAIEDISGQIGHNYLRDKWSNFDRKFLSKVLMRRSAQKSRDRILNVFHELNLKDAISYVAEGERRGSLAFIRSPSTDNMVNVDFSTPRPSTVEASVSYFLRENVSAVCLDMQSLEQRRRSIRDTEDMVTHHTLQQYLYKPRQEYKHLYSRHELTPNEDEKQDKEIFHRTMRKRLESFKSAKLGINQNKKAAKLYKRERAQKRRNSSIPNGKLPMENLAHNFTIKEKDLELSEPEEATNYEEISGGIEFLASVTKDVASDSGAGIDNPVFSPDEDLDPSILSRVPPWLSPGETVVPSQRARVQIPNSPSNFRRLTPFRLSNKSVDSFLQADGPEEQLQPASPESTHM
SMILES,Prompt Rat NHE3 pIC50 (Rat NHE3),Urine P % of control ([1]; dose 3 mg/kg),Urine P % of control ([1]; dose 10 mg/kg),Prompt Human NHE3 pIC50 (Human NHE3),Urine Na % of control ([2]; dose 3 mg/kg),Urine Na % of control ([2]; dose 10 mg/kg),Fecal Form Score average ([3]; dose 3 mg/kg),Fecal Form Score average ([3]; dose 10 mg/kg),Urine P % of control ([1]; dose 2 mg/kg),Urine Na % of control ([2]; dose 2 mg/kg),Fecal Form Score average ([3]; dose 2 mg/kg)
CN(C)[C@H]1Cc2c(Cl)cc(Cl)cc2[C@@H]1Oc1ccc(S(=O)(=O)NCCOCCOCCNC(=O)[C@H](O)[C@@H](O)C(=O)NCCOCCOCCNS(=O)(=O)c2ccc(O[C@H]3c4cc(Cl)cc(Cl)c4C[C@@H]3N(C)C)cc2)cc1 [compound 150],8.60,74%,159%,8.00,73%,12%,1,1,–,–,–
CN(C)[C@H]1Cc2c(Cl)cc(Cl)cc2[C@@H]1Oc1ccc(S(=O)(=O)NCCOCCOCCNC(=O)C(C)(C)C(=O)NCCOCCOCCNS(=O)(=O)c2ccc(O[C@H]3c4cc(Cl)cc(Cl)c4C[C@@H]3N(C)C)cc2)cc1 [compound 151],8.30,52%,121%,7.50,78%,42%,1,2,–,–,–
CN(C)[C@H]1Cc2c(Cl)cc(Cl)cc2[C@@H]1Oc1ccc(S(=O)(=O)NCCOCCOCCNC(=O)Nc2ccc(NC(=O)NCCOCCOCCNS(=O)(=O)c3ccc(O[C@H]4c5cc(Cl)cc(Cl)c5C[C@@H]4N(C)C)cc3)cc2)cc1 [compound 152],<5.00,–,74%,8.70,–,26%,–,1,–,–,–
CN1Cc2c(Cl)cc(Cl)cc2[C@H](c2cccc(S(=O)(=O)NCCOCCOCCNC(=O)CCC(CCC(=O)NCCOCCOCCNS(=O)(=O)c3cccc([C@@H]4CN(C)Cc5c(Cl)cc(Cl)cc54)c3)(CCC(=O)NCCOCCOCCNS(=O)(=O)c3cccc([C@@H]4CN(C)Cc5c(Cl)cc(Cl)cc54)c3)NC(=O)Cn3ccnc3)c2)C1 [compound 154],6.80,65%,–,6.80,112%,–,1,–,–,–,–
CN1Cc2c(Cl)cc(Cl)cc2[C@H](c2cccc(S(=O)(=O)NCCOCCOCCNC(=O)NCCCC(CCCNC(=O)NCCOCCOCCNS(=O)(=O)c3cccc([C@@H]4CN(C)Cc5c(Cl)cc(Cl)cc54)c3)(CCCNC(=O)NCCOCCOCCNS(=O)(=O)c3cccc([C@@H]4CN(C)Cc5c(Cl)cc(Cl)cc54)c3)NC(=O)CCC(=O)O)c2)C1 [compound 155],7.70,44%,–,7.90,40%,–,2,–,–,–,–
CN1Cc2c(Cl)cc(Cl)cc2[C@H](c2cccc(S(=O)(=O)NCCOCCOCCNC(=O)CCC(CCC(=O)NCCOCCOCCNS(=O)(=O)c3cccc([C@@H]4CN(C)Cc5c(Cl)cc(Cl)cc54)c3)(CCC(=O)NCCOCCOCCNS(=O)(=O)c3cccc([C@@H]4CN(C)Cc5c(Cl)cc(Cl)cc54)c3)NC(=O)Cc3nnn[nH]3)c2)C1 [compound 156],6.70,67%,–,7.20,13%,–,3,–,–,–,–
CN1Cc2c(Cl)cc(Cl)cc2[C@H](c2cccc(S(=O)(=O)NCCOCCOCCNC(=O)CCC(CCC(=O)NCCOCCOCCNS(=O)(=O)c3cccc([C@@H]4CN(C)Cc5c(Cl)cc(Cl)cc54)c3)(CCC(=O)NCCOCCOCCNS(=O)(=O)c3cccc([C@@H]4CN(C)Cc5c(Cl)cc(Cl)cc54)c3)NC(=O)NCCS(=O)(=O)O)c2)C1 [compound 157],7.70,50%,–,7.77,26%,–,3,–,–,–,–
CN1Cc2c(Cl)cc(Cl)cc2[C@H](c2cccc(S(=O)(=O)NCCOCCOCCNC(=O)CCC(CCC(=O)NCCOCCOCCNS(=O)(=O)c3cccc([C@@H]4CN(C)Cc5c(Cl)cc(Cl)cc54)c3)(CCC(=O)NCCOCCOCCNS(=O)(=O)c3cccc([C@@H]4CN(C)Cc5c(Cl)cc(Cl)cc54)c3)NC(=O)NC(CO)(CO)CO)c2)C1 [compound 158],<5.00,64%,–,6.90,32%,–,2,–,–,–,–
C[C@@H](O)[C@H](NC(=O)NC(CCC(=O)NCCOCCOCCNS(=O)(=O)c1cccc([C@@H]2CN(C)Cc3c(Cl)cc(Cl)cc32)c1)(CCC(=O)NCCOCCOCCNS(=O)(=O)c1cccc([C@@H]2CN(C)Cc3c(Cl)cc(Cl)cc32)c1)CCC(=O)NCCOCCOCCNS(=O)(=O)c1cccc([C@@H]2CN(C)Cc3c(Cl)cc(Cl)cc32)c1)C(N)=O [compound 159],7.20,55%,–,7.30,27%,–,2,–,–,–,–
CN1Cc2c(Cl)cc(Cl)cc2[C@H](c2cccc(S(=O)(=O)NCCOCCOCCNC(=O)NCCCC(CCCNC(=O)NCCOCCOCCNS(=O)(=O)c3cccc([C@@H]4CN(C)Cc5c(Cl)cc(Cl)cc54)c3)(CCCNC(=O)NCCOCCOCCNS(=O)(=O)c3cccc([C@@H]4CN(C)Cc5c(Cl)cc(Cl)cc54)c3)NC(=O)COCC(=O)O)c2)C1 [compound 161],9.20,60%,–,7.60,82%,–,2,–,–,–,–
CN1Cc2c(Cl)cc(Cl)cc2[C@H](c2cccc(S(=O)(=O)NCCOCCOCCNC(=O)CCC(CCCNC(=O)NCCOCCOCCNS(=O)(=O)c3cccc([C@@H]4CN(C)Cc5c(Cl)cc(Cl)cc54)c3)(CCC(=O)NCCOCCOCCNS(=O)(=O)c3cccc([C@@H]4CN(C)Cc5c(Cl)cc(Cl)cc54)c3)NC(=O)NCP(=O)(O)O)c2)C1 [compound 162],7.30,–,–,6.60,–,–,–,–,50%,130%,2
CN1Cc2c(Cl)cc(Cl)cc2[C@H](c2cccc(S(=O)(=O)NCCOCCOCCNC(=O)CCC(CCC(=O)NCCOCCOCCNS(=O)(=O)c3cccc([C@@H]4CN(C)Cc5c(Cl)cc(Cl)cc54)c3)(CCC(=O)NCCOCCOCCNS(=O)(=O)c3cccc([C@@H]4CN(C)Cc5c(Cl)cc(Cl)cc54)c3)NC(=O)N[C@@H](CO)C(=O)O)c2)C1 [compound 163],7.90,48%,–,7.60,27%,–,2,–,–,–,–
